From patent US5298494A, “Monosaccharides having anti-proliferation and anti-inflammatory activity, compositions and uses thereof” (Greenwich Pharmaceuticals Incorporated, priority 1993, dated 1994)
Read-outs that look alike come from different tables or passages of the source.

Assays:
[1] = system: T lymphocytes (normal mouse spleen cells) stimulated with ConA; assay: Mouse Spleen Cell ConA Blastogenesis Assay; type: cell-based, mouse (C57Bl/6); details: Mus musculus, T-lymphocyte; for inhibition at 0.1 µg/mL: compound 0.1 ug/ml; for inhibition at 1 µg/mL: compound 1 ug/ml; for inhibition at 2.5 µg/mL: compound 2.5 ug/ml; for inhibition at 10 µg/mL: compound 10 ug/ml; for inhibition at 25 µg/mL: compound 25 ug/ml; for inhibition at 100 µg/mL: compound 100 ug/ml
[2] = system: Interleukin 1 (IL-1) production by peritoneal macrophages; assay: IL-1 Assay: production of interleukin-1 by peritoneal macrophages (thymocyte bioassay); type: cell-based, mouse (C57B1/6); design: inhibition: dose or concentration left out as unconfirmed
From the text: Interleukin 1 (IL-1) is a potent immunomodulatory cytokine that has a broad range of pro-inflammatory activities. IL-1 is known to be produced by activated accessory cells such as macrophages. Accessory cell production of IL-1 results in the activation and proliferation of T and B lymphocytes. Therefore, by inhibiting macrophage activation and production of IL-1, the activation and proliferation of the cellular effectors of inflammation can be modulated. Compounds of the invention were screened for inhibitory activity in a classical IL-1 assay. Six to 8 week old male C57B1/6 mice were purchased from Harlan Sprague Dawley. Peritoneal macrophages were elicited by the administration to mice of a single intraperitoneal injection of 0.2 ml of complete Freund's adjuvant. After 48 hours, elicited macrophages were removed from the mice by lavage with the use of Hank's balanced salt solution. […] To the macrophage cultures were added various doses of the compounds of the invention and 10 ug/ml of the macrophage activator lipopolysaccharide (to stimulate IL-1 production). Control cultures consisted of macrophages, lipopolysaccharide and culture medium containing various doses of DMSO only. […] The amount of IL-1 produced in the individual wells was determined in a bioassay for IL-1. This involved the removal of thymuses from mice less than 8 weeks of age. Thymocytes were isolated by passing each thymus through a stainless steel mesh screen. […] After 18 hours cells were harvested and radioactive incorporation (as a measure of cell proliferation) was quantitated in a liquid scintillation counter. The students t test was used to determine the significance of the difference between experimental and control values.

[3] = ConA 1 ug/ml, read-out: % change from control, ConA blastogenic response
[4] = ConA 4 ug/ml, read-out: % change from control, ConA blastogenic response

Q: Which results are given for `CCCCCC#CCOC[C@H]1O[C@@]2(OC)COC(C)(C)O[C@H]2[C@@H]1OCC#CCCCCC` [Id, methyl 1,3-O-isopropylidene-4,6-di-O-(2-octynyl)-α-D-fructofuranoside]?
A: inhibition at 0.01 µg/mL ([1]; ConA 1 ug/ml, 0.01 ug/ml, read-out: % Change from Control (Table II)): 9%; inhibition at 0.01 µg/mL ([1]; ConA 1 ug/ml, compound 0.01 ug/ml, read-out: % change from control, ConA blastogenic response): 10%; inhibition at 0.1 µg/mL [1, 3]: 25%; inhibition at 1 µg/mL [1, 3]: 67%; inhibition at 2.5 µg/mL [1, 3]: 91%; inhibition at 10 µg/mL [1, 3]: 100%; inhibition at 25 µg/mL [1, 3]: 100%; inhibition at 100 µg/mL [1, 3]: 99%; inhibition at 0.01 µg/mL ([1]; ConA 4 ug/ml, 0.01 ug/ml, read-out: % Change from Control (Table II)): 16%; inhibition at 0.01 µg/mL ([1]; ConA 4 ug/ml, compound 0.01 ug/ml, read-out: % change from control, ConA blastogenic response): 14%; inhibition at 0.1 µg/mL [1, 4]: 27%; inhibition at 1 µg/mL [1, 4]: 75%; inhibition at 2.5 µg/mL [1, 4]: 94%; inhibition at 10 µg/mL [1, 4]: 100%; inhibition at 25 µg/mL [1, 4]: 100%; inhibition at 100 µg/mL [1, 4]: 99%; ^3 H-Thymidine uptake by thymocytes ([2]; 0.001 ug/ml): 10,850 ± 995 cpm; ^3 H-Thymidine uptake by thymocytes ([2]; 0.01 ug/ml): 13,080 cpm; ^3 H-Thymidine uptake by thymocytes ([2]; 0.1 ug/ml): 13,190 ± 560 cpm; ^3 H-Thymidine uptake by thymocytes ([2]; 1 ug/ml): 9,880 ± 1,029 cpm; ^3 H-Thymidine uptake by thymocytes ([2]; 2.5 ug/ml): 6,400 ± 1,070 cpm; ^3 H-Thymidine uptake by thymocytes ([2]; 10 ug/ml): 3,050 ± 191 cpm; ^3 H-Thymidine uptake by thymocytes ([2]; 25 ug/ml): 2,537 ± 182 cpm; ^3 H-Thymidine uptake by thymocytes ([2]; 100 ug/ml): 1,930 cpm; inhibition at 0.001 µg/mL ([2]; Mus musculus, Peritoneal macrophage, 0.001 ug/ml, read-out: % effect on IL-1 production (thymidine uptake by thymocytes)): 0%; inhibition at 0.01 µg/mL ([2]; Mus musculus, Peritoneal macrophage, 0.01 ug/ml, read-out: % effect on IL-1 production (thymidine uptake by thymocytes)): -20%; inhibition at 0.1 µg/mL ([2]; Mus musculus, Peritoneal macrophage, 0.1 ug/ml, read-out: % effect on IL-1 production (thymidine uptake by thymocytes)): -19%; inhibition at 2.5 µg/mL ([2]; Mus musculus, Peritoneal macrophage, 2.5 ug/ml, read-out: % effect on IL-1 production (thymidine uptake by thymocytes)): 44%; inhibition at 10 µg/mL ([2]; Mus musculus, Peritoneal macrophage, 10 ug/ml, read-out: % effect on IL-1 production (thymidine uptake by thymocytes)): 70%; inhibition at 25 µg/mL ([2]; Mus musculus, Peritoneal macrophage, 25 ug/ml, read-out: % effect on IL-1 production (thymidine uptake by thymocytes)): 71%; inhibition at 100 µg/mL ([2]; Mus musculus, Peritoneal macrophage, 100 ug/ml, read-out: % effect on IL-1 production (thymidine uptake by thymocytes)): 78%; inhibition ([2]; Mus musculus, Peritoneal macrophage, read-out: % effect on IL-1 production (thymidine uptake by thymocytes)): 10%
